A short description of series [1]: Rat liver cells metabolic stability. In kind it is in vitro ADME. The conditions noted are these: rat liver cells 0.5 × 10^6 cells/mL; for hepatocyte CLint / half-life: hepatocytes; for hepatocyte CLint: read-out: in vitro CLint (µL/min/10^6 cells); for half-life: read-out: in vitro t1/2. The protocol: Test compound and control drug verapamil powder were prepared into […] stock solution using DMSO, and they were diluted with 50% acetonitrile/50% water to 100 µM working solution before use.
• 1) 49.5 mL Williams E Medium and 0.5 mL glutaMAX were mixed as incubation medium. The liver cell resuscitation solution and incubation solution were preheated in a 37 °C water bath for at least 15 min before use. • 2) A tube of liver cells stored at ultra-low temperature was taken and ensured that they remain in a low-temperature frozen state before resuscitation. The liver cells were placed quickly in a 37 °C water bath and shaken gently until all ice crystals were dispersed. • 3) The contents of the liver cells tubes were poured into a centrifuge tube containing 50 mL of resuscitation medium, and they were centrifuged at 100 g for 10 min. After centrifugation, the resuscitation medium was aspirated, and sufficient incubation medium was added to obtain a cell suspension with a cell density of approximately 1.0 × 10^6 cells/mL. • 4) AO/PI staining was used to count liver cells and determine viable cell density, the survival rate of liver cells must be greater than 75%. The liver cell suspension was diluted with incubation medium to a viable cell density of 0.5 × 10^6 cells/mL.
• 1) 198 µL live cell suspension was transferred to a 96 well deep well plate, and the deep well plate was placed on a vortex and preheat in the incubator for 10 min. • 2) 2 µL 100 µM test compound or positive control compound was added to each well for reaction initiation, and the deep well plate was placed back on the incubator vortex. • 3) The incubation plate was placed into the incubator for incubation. 25 µL suspension was taken at 0.5, 15, 30, 60, 90, and 120 min, and 6-fold (150 µL) acetonitrile containing internal standard quencher (100 nM alprazolam, 200 nM caffeine, and 100 nM toluenesulfonylbutamide) was added to a new 96 well plate to terminate the reaction. The plate was vortexed for 5 min and centrifuged at 3220 rpm and 4 °C for 45 min to precipitate the protein. 100 µL of supernatant was transferred to the sample plate, and 100 µL pure water was added and mixed well for UPLC-MS/MS analysis. All incubation systems were conducted in a dual parallel manner.
All data was calculated using Microsoft Excel software. Peak area was detected by extracting ion chromatogram. In vitro half-life (T1/2) and in vitro clearance rate (in µL/min/10^6 cells) of the parent drug were detected by linearly fitting of the natural logarithm of the […] percentage of the parent drug versus time. Table 6 Results of rat liver cell stability test

Series [2] has as its target Ba/F3-TEL-FGFR2 (Homo sapiens, UniProt P21802+P41212). In words: Cell viability (proliferation inhibition) of Ba/F3 cells, CellTiter Glo. The conditions noted are these: read-out: Ba/F3 cell FGFR2 (IC50 nM), 72 h.
A short description of series [3]: Pharmacokinetic test in rats. In kind it is in vivo, male SD rats. The conditions noted are these: rat, plasma, oral gavage administration, 10 mg/kg. In short, it runs like this: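 Male SD rats (180-220 g, fasted overnight, n=3 per route) received 10 mg/kg by oral gavage or 1 mg/kg intravenously. Plasma was sampled from 5 min to 24 h post-dose and analysed by LC-MS/MS after protein precipitation. Parameters came from non-compartmental analysis.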

Series [4] has as its target T1, CYP1A2 (Homo sapiens, UniProt P05177).
T1 sequence (P05177 1-516): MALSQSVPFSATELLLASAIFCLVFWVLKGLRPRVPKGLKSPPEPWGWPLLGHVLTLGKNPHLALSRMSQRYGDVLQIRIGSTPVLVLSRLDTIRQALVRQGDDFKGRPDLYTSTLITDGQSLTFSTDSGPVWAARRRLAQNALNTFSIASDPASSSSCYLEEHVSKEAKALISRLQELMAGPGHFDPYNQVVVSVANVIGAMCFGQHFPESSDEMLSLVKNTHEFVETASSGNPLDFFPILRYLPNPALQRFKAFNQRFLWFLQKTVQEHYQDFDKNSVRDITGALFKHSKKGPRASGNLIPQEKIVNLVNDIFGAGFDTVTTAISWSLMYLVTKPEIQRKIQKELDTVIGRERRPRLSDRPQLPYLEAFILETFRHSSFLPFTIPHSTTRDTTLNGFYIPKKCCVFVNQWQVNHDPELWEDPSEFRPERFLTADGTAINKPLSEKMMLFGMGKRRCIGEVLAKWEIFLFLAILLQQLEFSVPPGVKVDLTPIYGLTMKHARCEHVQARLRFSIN
In words: Cytochrome P450 inhibition in human liver microsomes. On the technique in general: Liver microsomes are vesicles of endoplasmic reticulum, rich in cytochrome P450 enzymes.
Procedure: (§3) Preparation of positive control inhibitor and compound working solution: 16 µL inhibitor stock solution or compound stock solution for each CYP subtype were taken and added to 24 µL DMSO. Then, they were diluted gradually three times with diluent to obtain different concentrations of test sample/positive control inhibitor working solution (7 concentrations each except for blank)
(§4) Preparation of test sample group working solution: The human liver microsomal working solution was divided into 96 well plates at 796 µL per well, and then 4 µL test sample working solution was added.
(§5) Preparation of positive control group working solution: The human liver microsomal working solution was divided into 96 well plates at 199 µL per well, and then 1 µL positive control inhibitor working solution was added.
(§6) Blank solvent working solution preparation: The human liver microsomal working solution was divided into 96 well plates at 199 µL per well, and then 1 µL DMSO was added.
(§7) (a) 30 µL test sample/positive control inhibitor working solution or 30 µL blank solvent working solution per well were transferred into a 96 well plate, and 15 µL substrate working solution of different enzyme subtypes transferred into each well, and mixed evenly. (b) The above incubation plates and 4 x NADPH working solution were preheated at 37 °C for 5 min. (c) 15 µL preheated 4 × NADPH working solution per well was transferred into the incubation plate, and the reaction initiated, and continued to be incubated at 37 °C.
(§8) (d) After the reaction time was reached, 180 µL termination solution was added to terminate the reaction. […] (f) After centrifugation, 80 µL supernatant was taken and added to 120 µL ultrapure water, and after it was mixed evenly, LC-MS/MS was used to analyze the metabolites of the probe substrate.

In series [5] the target is CYP2D6 (Homo sapiens, UniProt P10635). The series is described as above.
Procedure: as §3
(§9) Preparation of liver microsomal working solution: 300 µL human liver microsomes (20.0 mg/mL) was taken and added to 29700 µL PBS and mixed well, and the concentration of the prepared human liver microsomal working solution was 0.200 mg/mL.
(§10) Preparation of 4 x NADPH working solution: A certain weight of NADPH tetrasodium salt was weighted and dissolved to a suitable volume of PBS to obtain NADPH working solution, with a concentration of 8.00 mM.
as §4, §5, §6
(§11) (a) 30 µL test sample/positive control inhibitor working solution or 30 µL blank solvent working solution per well were transferred into a 96 well plate, and 15 µL substrate working solution of different enzyme subtypes transferred into each well, and mixed evenly. (b) The above incubation plates and 4 x NADPH working solution were preheated at 37 °C for 5 min. (c) 15 µL preheated 4 × NADPH working solution per well was transferred into the incubation plate, and the reaction initiated, and continued to be incubated at 37 °C. The incubation time is as follows:
as §8
In series [6] the target is Ba/F3-TEL-FGFR1 (Homo sapiens, UniProt P11362+P41212). In words: Cell viability (proliferation inhibition) of Ba/F3 cells, CellTiter Glo. The settings on record: read-out: Ba/F3 cell FGFR1 (IC50 nM), 72 h.
The target of series [7] is CYP2C9 (Homo sapiens, UniProt P11712). The experiment in a line: Cytochrome P450 inhibition in human liver microsomes.
Procedure: as §3, §4, §5, §6, §7, §8
Series [8] has as its target CYP3A4 (Homo sapiens, UniProt P08684). The series is described as above.
Procedure: as §3, §9, §10, §4, §5, §6, §11, §8
Series [9] has as its target CYP2C19 (Homo sapiens, UniProt P33261). The description is as above.
Procedure: as §3, §4, §5, §6, §7, §8
Series [10] concerns the target hERG (Homo sapiens, UniProt Q12809). In words: Manual patch clamp, hERG channel current in HEK-293 cells. (In patch-clamp work, channel activity is measured electrically.)
Procedure: The test compound diluents were diluted with extracellular fluid containing 0.5% F68 in sequence to prepare working solutions of 30 µM, 10 µM, 3 µM, 1 µM and 0.3 µM, and 0.3% DMSO was ensured.
The test compound diluents were diluted with extracellular fluid containing 0.5% F68 in sequence to prepare working solutions with concentrations of 30 µM, 10 µM, 3 µM, 1 µM and 0.3 µM, and 0.3% DMSO was ensured.
Cells were inoculated into 6 cm cell culture dishes, with a total of 2.5 × 10^5 cells per dish (final volume: 5 mL). To maintain the electrophysiological activity of cells, the cell density must not exceed 80%.
The voltage stimulation protocol for recording hERG currents using whole cell patch clamp was as follows: when a whole cell seal was formed, the cell membrane voltage was clamped at -80 mV. […] Data was collected repeatedly every 10 s to observe the effect of the drug on hERG tail current. The experimental data was collected by IPA amplifier (Sutter Instrument) and stored in SutterPatch (with Igor Pro) software.
When the hERG current recorded by the whole cell was stabilized, administration began, and each drug concentration acted for about 5 min (or until the current was stabilized), and then the next concentration was detected, multiple concentrations were detected for each test compound. The cover glass covered with cells was placed in the recording bath under an inverted microscope, the blank control solution and the test compound working solution sequentially flowed through the recording bath from low concentration to high concentration using gravity perfusion to act on the cells, liquid exchange was performed using a peristaltic pump during recording. The current of each cell detected in the extracellular fluid without the compound serves as its own control group. Each concentration should be independently tested twice using at least two cells. All electrophysiological tests were performed at room temperature.
For series [11], the system named is A204 cells. The experiment in a line: Proliferation inhibition, CCK-8 colorimetric method. In kind it is cell-based. The conditions noted are these: Homo sapiens, 72 h. The protocol:
(§1) CCK-8 (Bimake/B34304) colorimetric method was used to detect the in vitro proliferation inhibitory effect of compounds on suspended or adherent cells in this experiment. The specific experimental steps were as follows: • 1) Cell plating: SNU16 and A204 tumor cells (cells from Shanghai Institute of Organic Chemistry, Chinese Academy of Sciences) in the logarithmic growth phase were digested and centrifuged for trypan blue counting, and the cells were seeded into a transparent 96 well plate at a density of 4000 cells/100 µ 1/well. […] The test compound and control compound stock solution were diluted with the corresponding culture medium required for cell culture (with or without solvent DMSO) to obtain a series of working solutions, with concentrations of twice the final concentration. The solvent DMSO contents in each concentration group were consistent with that of the solvent control group. The final concentration of A204 cells started at 10 µM and was diluted twice.
(§2) Calculation of cell survival rate: Cell survival rate (%)=[(As-Ac)/(Ab-Ac)] × 100%] (As: experimental well; Ab: Solvent control well; Ac: Blank well).

In series [12] the test system is SNU16 cells. The description is as above. The series is classed as cell-based. The settings on record: Homo sapiens, SNU-16, 72 h. As for the experimental part: as §1, §2
Series [13] concerns the target Ba/F3-TEL-FGFR3 (Homo sapiens, UniProt P22607+P41212). The experiment in a line: Cell viability (proliferation inhibition) of Ba/F3 cells, CellTiter Glo. The settings on record: read-out: Ba/F3 cell FGFR3 (IC50 nM), 72 h. A general note: ATP-based viability assays read luminescence as a measure of living cells.

pIC50: −log10 of the molar value. A value given as a limit tells only on which side of the number the result lay.

The values that follow come from patent EP4553077A1 (Kinoteck Therapeutics Co., Ltd, priority 2022, dated 2024).

For orientation: AUC(0-t) means the area under the concentration-time curve up to a stated or last time point. Read a low AUC(0-t) as low exposure. In general, Cmax refers to the highest concentration seen after dosing. In general, Tmax refers to the time at which the peak concentration occurs. As a reminder, the pIC50 is −log10 of the IC50, conventionally taken in molar units. Broadly, the inhibition is the relative decrease from the control value, in per cent.

Sequence of hERG (Q12809 whole entry): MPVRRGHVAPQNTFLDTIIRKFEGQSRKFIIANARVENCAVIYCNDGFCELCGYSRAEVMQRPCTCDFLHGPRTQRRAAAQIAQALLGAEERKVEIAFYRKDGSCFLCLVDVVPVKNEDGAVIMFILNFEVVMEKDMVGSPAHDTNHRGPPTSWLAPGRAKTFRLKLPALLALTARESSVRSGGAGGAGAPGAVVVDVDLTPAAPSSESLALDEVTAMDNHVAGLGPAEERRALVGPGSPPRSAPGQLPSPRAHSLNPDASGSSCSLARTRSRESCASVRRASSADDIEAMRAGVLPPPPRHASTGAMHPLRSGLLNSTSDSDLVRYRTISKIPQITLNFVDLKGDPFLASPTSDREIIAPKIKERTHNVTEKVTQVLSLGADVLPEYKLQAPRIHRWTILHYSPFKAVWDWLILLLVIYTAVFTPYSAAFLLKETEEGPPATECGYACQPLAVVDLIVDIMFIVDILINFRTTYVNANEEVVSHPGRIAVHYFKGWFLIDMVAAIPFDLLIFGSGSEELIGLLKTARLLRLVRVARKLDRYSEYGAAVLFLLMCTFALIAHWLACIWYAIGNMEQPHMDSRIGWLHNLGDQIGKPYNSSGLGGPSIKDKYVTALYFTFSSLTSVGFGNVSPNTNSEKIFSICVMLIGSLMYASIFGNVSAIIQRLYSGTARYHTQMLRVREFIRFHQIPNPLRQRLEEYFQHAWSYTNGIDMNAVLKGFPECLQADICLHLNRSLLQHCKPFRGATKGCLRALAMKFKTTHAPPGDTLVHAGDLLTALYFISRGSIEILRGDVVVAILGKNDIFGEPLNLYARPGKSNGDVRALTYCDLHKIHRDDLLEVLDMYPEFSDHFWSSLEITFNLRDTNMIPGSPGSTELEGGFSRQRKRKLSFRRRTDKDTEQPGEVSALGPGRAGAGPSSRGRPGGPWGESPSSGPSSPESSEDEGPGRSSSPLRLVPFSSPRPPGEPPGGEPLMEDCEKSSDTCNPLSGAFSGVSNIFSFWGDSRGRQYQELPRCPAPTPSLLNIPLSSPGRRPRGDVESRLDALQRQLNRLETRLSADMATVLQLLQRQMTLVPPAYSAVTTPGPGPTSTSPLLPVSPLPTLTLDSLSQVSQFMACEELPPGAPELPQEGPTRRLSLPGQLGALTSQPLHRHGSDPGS
Sequence of CYP2C19 (P33261 whole entry): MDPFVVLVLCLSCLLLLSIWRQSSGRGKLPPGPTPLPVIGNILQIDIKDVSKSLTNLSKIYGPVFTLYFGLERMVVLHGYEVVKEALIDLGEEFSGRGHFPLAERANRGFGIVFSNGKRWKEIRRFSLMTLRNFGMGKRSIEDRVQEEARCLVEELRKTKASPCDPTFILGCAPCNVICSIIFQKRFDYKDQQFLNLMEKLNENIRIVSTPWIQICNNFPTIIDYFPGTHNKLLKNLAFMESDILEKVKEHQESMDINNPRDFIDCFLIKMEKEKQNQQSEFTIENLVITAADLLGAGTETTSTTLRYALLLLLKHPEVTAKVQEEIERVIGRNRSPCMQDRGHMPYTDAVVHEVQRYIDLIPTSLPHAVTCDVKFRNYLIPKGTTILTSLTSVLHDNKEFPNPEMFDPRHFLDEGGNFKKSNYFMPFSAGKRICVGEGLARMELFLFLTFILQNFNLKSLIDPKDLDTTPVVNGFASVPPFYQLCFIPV
Sequence of CYP2D6 (P10635 whole entry): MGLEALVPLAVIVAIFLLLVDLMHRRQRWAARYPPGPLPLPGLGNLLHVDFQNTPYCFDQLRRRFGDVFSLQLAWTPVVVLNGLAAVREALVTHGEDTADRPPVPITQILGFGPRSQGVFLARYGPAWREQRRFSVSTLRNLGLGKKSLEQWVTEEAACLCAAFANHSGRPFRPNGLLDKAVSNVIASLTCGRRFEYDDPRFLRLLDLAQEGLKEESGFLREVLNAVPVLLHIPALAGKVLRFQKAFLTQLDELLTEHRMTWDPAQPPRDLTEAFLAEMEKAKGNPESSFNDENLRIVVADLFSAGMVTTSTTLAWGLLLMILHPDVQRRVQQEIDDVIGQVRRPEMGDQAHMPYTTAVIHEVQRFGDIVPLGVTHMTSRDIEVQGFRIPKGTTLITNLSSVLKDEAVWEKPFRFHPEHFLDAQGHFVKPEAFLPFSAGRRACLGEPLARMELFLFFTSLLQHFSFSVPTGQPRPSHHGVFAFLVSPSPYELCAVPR
Sequence of Ba/F3-TEL-FGFR2 (P21802 481-770 limits assumed, one chain of several): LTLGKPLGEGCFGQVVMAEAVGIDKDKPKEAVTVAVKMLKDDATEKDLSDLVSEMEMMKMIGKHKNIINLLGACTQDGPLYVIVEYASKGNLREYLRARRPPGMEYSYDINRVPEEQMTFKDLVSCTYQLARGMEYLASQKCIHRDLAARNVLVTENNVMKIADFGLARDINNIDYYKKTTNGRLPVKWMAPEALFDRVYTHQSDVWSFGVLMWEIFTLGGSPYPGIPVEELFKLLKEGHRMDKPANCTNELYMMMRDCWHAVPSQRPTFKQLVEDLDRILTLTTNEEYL
Sequence of CYP2C9 (P11712 whole entry): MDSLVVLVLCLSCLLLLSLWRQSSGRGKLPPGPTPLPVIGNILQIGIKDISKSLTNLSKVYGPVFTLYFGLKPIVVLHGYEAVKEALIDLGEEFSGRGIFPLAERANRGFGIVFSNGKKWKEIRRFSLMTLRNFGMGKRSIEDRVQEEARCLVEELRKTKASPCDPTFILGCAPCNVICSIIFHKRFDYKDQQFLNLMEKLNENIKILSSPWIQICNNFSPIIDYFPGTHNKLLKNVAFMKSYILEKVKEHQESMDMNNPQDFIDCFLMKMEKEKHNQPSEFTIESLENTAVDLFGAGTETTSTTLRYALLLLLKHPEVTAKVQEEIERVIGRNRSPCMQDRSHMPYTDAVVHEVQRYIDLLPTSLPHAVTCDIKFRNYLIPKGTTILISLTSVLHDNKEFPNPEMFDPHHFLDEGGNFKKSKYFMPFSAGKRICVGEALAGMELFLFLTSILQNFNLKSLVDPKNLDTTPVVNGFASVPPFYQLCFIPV
Sequence of CYP3A4 (P08684 whole entry): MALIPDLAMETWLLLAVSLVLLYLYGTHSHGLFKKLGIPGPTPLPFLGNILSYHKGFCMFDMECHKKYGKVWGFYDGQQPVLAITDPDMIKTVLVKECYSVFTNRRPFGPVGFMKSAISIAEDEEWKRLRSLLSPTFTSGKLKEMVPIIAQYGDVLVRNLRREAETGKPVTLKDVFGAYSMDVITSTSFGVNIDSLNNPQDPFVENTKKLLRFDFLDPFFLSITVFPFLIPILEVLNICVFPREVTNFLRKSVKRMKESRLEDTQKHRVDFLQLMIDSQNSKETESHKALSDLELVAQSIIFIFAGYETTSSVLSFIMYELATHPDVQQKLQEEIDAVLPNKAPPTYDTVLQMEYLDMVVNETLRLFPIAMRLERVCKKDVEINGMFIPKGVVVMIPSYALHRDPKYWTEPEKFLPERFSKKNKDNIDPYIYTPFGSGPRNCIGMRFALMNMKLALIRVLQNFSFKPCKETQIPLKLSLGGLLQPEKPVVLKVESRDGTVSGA
Sequence of Ba/F3-TEL-FGFR1 (P11362 478-767 limits assumed, one chain of several): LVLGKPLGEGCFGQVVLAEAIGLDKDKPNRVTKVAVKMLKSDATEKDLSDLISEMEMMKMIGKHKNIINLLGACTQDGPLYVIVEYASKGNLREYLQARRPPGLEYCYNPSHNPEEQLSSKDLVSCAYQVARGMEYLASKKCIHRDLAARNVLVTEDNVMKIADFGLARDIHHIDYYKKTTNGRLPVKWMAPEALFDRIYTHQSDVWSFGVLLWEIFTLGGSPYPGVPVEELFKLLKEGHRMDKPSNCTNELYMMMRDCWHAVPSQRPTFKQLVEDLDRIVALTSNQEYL
Sequence of Ba/F3-TEL-FGFR3 (P22607 472-761 limits assumed, one chain of several): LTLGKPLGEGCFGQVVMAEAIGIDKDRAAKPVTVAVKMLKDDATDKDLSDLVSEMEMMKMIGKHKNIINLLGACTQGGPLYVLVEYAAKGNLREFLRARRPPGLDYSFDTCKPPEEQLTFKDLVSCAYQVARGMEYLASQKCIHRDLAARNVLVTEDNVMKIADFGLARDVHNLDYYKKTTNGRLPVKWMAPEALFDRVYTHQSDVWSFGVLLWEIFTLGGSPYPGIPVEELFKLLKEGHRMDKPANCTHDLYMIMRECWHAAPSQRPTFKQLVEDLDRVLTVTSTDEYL

For the molecule `C=C(C)C(=O)Nc1ccc(-c2c(-c3ccc(N=S4(=O)CCCC4)cc3)c3c(N)ncnc3n2C)c(F)c1` [Compound 24], in [1], the hepatocyte CLint came out at 37.1 µL/min/1e6 cells, the half-life is 37.3 min and the “Remaining percentage of compound after 60 min of incubation (%)” value is 37.55%. In addition, in series [2], the IC50 was 2.1 nM. In series [3], the AUC(0-t) was 871 ng·h/mL, the Cmax was 270 ng/mL, the Tmax turned out to be 15 min and the half-life is 85.8 min. In addition, the pIC50 in series [4] is < 5.00. Besides, the pIC50 in series [5] is 4.85. Moreover, in series [6], the IC50 amounted to 1910 nM. The same molecule had a pIC50 in series [7] of 4.54. In addition, in series [8], the pIC50 was 4.97. The pIC50 in [9] was 4.71. Further, in series [10], the pIC50 was < 5.00. In series [10] (human, hek-293 cells), the inhibition at 0.3 µM is -1.24%, the inhibition at 1 µM was 7.73%, the inhibition at 3 µM was 10.2% and the inhibition at 10 µM is 32.2%. Besides, the inhibition at 30 µM in [10] (human, hek-293 cells) came out at 14.2%.
Turning to `C=C(C)C(=O)Nc1ccc(-c2c(-c3ccc(N=S(=O)(CC)CC)cc3)c3c(N)ncnc3n2C)c(F)c1` [Compound 58], the IC50 is 1270 nM in series [11]; 9.52 nM in [12]; 3 nM in [2]; 442 nM in [13]; 2030 nM in series [6]. This molecule also gave an AUC(0-t) in series [3] of 1420 ng·h/mL. The molecule further yielded a Cmax in [3] of 604 ng/mL. Moreover, in series [3], the Tmax was determined as 30 min. For the same molecule, the half-life in series [3] was 191 min. Moreover, the pIC50 in series [4] was < 5.00; in [5] it was 5.01; in series [7], 4.53; in [8], < 5.00; in series [9] it was 5.27.
For the molecule `[2H]C([2H])([2H])n1c(-c2ccc(NC(=O)C(=C)C)cc2F)c(-c2ccc(N=S3(=O)CCCC3)cc2)c2c(N)ncnc21` [Compound 83, N-(4-(4-amino-7-(methyl-d3)-5-(4-(1-oxotetrahydro-1 λ^6-thiophene-1-imino)phenyl)-7H-pyrrolo[2,3-d]pyrimidin-6-yl)-3-fluorophenyl)methacrylamide], in series [1], the hepatocyte CLint came out at 37.3 µL/min/1e6 cells. Further, the results for the half-life in [1] and in series [3] were 37.1 min and 112 min, respectively. Moreover, in [1], the “Remaining percentage of compound after 60 min of incubation (%)” value worked out at 35.86%. In addition, the IC50 stood at 1.1 nM in series [2], 319 nM in [13] and 661 nM in series [6]. Further, the AUC(0-t) in series [3] stood at 1480 ng·h/mL. The same molecule yielded a Cmax in series [3] of 414 ng/mL. The Tmax in [3] was 19.8 min. For the same molecule, the pIC50 in [4] was < 5.00; in series [5] it was 5.06; in series [7] it was 4.84; in series [8], 4.94; in series [9], 4.85.
